The values below come from patent publication US12264175B2, “Compositions and methods for capping RNAS” (Verve Therapeutics, Inc., priority 2020, dated 2025).

The target in experiment [1] is T1, T7 RNA polymerase (Escherichia phage T7, UniProt P00573). As to the kind of experiment: One-pot IVT preparation of 5′ capped mRNA (production yield, full-length purity). Type of experiment: biochemical. The text has this:
The 5′ end initiator, 1007a, (FIG. 1A) was used to prepare capped mRNAs that encode for ABE and luciferase proteins. In this Example and for all others described herein, the ABE mRNA sequence was MA004 (SEQ. 0001) and the luciferase mRNA sequence was the Photinus pyralis (Firefly) luciferase sequence described in NCBI reference sequence XM_031473197.1. These mRNA can be produced by different methods well known in the art. One of such methods used herein was in vitro transcription (IVT) using T7 polymerase; or in other embodiments, additional RNA polymerase variants. This IVT reaction to produce mRNA used a linearized DNA template that comprised a T7 polymerase promoter and associated regulatory sequences, mRNA coding sequence (CDS), 3′ and 5′ untranslated regions (UTRs), poly A tail, and additional sequence elements to facilitate and modulate mRNA stability and in vivo performance. Prior to IVT, the DNA template was in the form of a plasmid; in other embodiments the DNA template is in the form of a PCR product, synthetic DNA product, or any other double-stranded DNA construct. Linearization of the DNA template with a restriction digestion enzyme was performed in order to promote run-off transcription. The typical IVT reaction included T7 polymerase, DNA template, RNase inhibitor, cap analog, inorganic pyrophosphatase, and the naturally occurring ribonucleoside triphosphates (NTPs) such as GTP, ATP, CTP, and N1-methyl pseudouridine triphosphosphate; in some embodiments NTPs include UTP or modified NTPs such as pseudouridine, 5′methyl cytidine, 5-methoxy uridine, N6-methyl adenosine, and N4-acetyl cytidine. The 1007a 5′ end initiator was added to the IVT reaction along with ATP, GTP, CTP, and N1-methyl pseudouridine triphosphate at a 1:1 initiator-to-NTP molar ratio and additional ratios described in Example 5 (B). Poly A tail was encoded in the DNA template that was added to the mRNA during transcription; in some instances, poly A tail is added to the mRNA after the IVT reaction using an RNA ligase enzyme. Finally, T7 RNA polymerase was added to the mixture and the IVT reaction was run at 37° C. for about 1-4 hours. After IVT, DNase was added to the transcription mixture to remove DNA template; in some instances, residual DNA is removed with chromatography. This mRNA was purified to remove residual reaction products and impurities, and stored in 1 mM citrate buffer. Characterization of production yield and mRNA full-length purity was performed by UV spectrometry and capillary gel electrophoresis methods, which are known in the art. […] Similar IVT and purification process are used to produce mRNA encoding SpCas9, Cas12b, CBE, and other ABEs; in all cases the DNA template, reaction conditions, and purification parameters are optimized for the specific gene of interest.
Similarly, ABE encoding mRNA with 5′ end region, 1107a, (FIG. 1B) was produced and characterized as described in the paragraph above.

The target in experiment [2] is T1, T7 RNA polymerase. In words: mRNA capping efficiency at adjusted 5′ end initiator-to-NTP molar ratio. Type of experiment: biochemical. The settings on record: initiator-to-NTP ratio ranging from 1:1 down to 1:1.67; FIG. 4. From the text: The amount of capped mRNA produced in an IVT reaction is directly proportional to the ratio of cap to NTPs in the reaction mixture (Stepinski, J. et al., RNA. 2006, 7, 1486-1495). The 5′ end initiator-to-NTP ratio in an IVT reaction impacts the amount of mRNA that becomes capped primarily because cap can compete with NTPs for insertion at the 5′ end of mRNA. A typical initiator-to-NTP ratio for a dinucleotide cap structure is 4:1 and a typical molar initiator-to-NTP ratio for a trinucleotide cap structure is 1:1; where NTP represents either GTP, ATP, CTP, UTP, or modified NTPs such as N1-methyl pseudouridine. At both a 4:1 ratio for a dinucleotide cap and 1:1 ratio for a trinucleotide cap, the resultant mRNA will have a mixture of transcripts of which at least 80% are capped at the 5′ end and up to 20% are uncapped, this is also described as a capping efficiency of 80%. Capping efficiency is the measured amount of capped mRNA divided by the total amount of capped mRNA plus uncapped mRNA. Therefore, trinucleotide caps can be considered more efficient capping compounds than dinucleotide caps since less input cap is required to produce a final mRNA product that contains a similar amount of capped 5′ ends. The ability of trinucleotide caps to produce a high (>90%) capping efficiency at a lower initiator-to-NTP ratio than dinucleotide caps, in some instances, can be attributed to the increased affinity of a trinucleotide cap for the DNA template. In some cases, the optimal cap-to-NTP ratio may vary with the composition of the cap structure, wherein modification of cap structures may affect capping efficiency. […]
The amount of capped mRNA relative to the total amount of mRNA that is present, i.e. capping efficiency, can be measured by numerous methods well known in the art. […]

For experiment [3], the system named is primary human liver hepatocytes (hPH). As to the kind of experiment: ABE protein levels by ELISA after mRNA transfection of primary human hepatocytes. The settings on record: ABE mRNA transfected to hPH cells, FIG. 6. The format is cell-based. On the procedure:
Primary human liver hepatocytes (hPH), primary cynomolgus liver hepatocytes (cPH), or primary mouse liver hepatocytes (mPH) are cultured per the manufacturer's protocol. In brief, the cells are thawed and resuspended in hepatocyte thawing medium followed by centrifugation at 100 g for 10 min at 4° C. The supernatant is discarded, and the pelleted cells resuspended in hepatocyte plating medium. Each vial contains ˜5 million cells that are used for plating one 24-well plate. Plated cells are allowed to settle and adhere for 4-6 h in a tissue culture incubator at 37° C. under 5% CO2 atmosphere. After incubation, cells are checked for monolayer formation. The incubating media is then replaced with fresh hepatocyte maintenance media The cells thus are ready for transfection using a transfection agent such as MessengerMAX. Solution A: desired amount of single guide RNA (sgRNA) is mixed with 1:1 wt ratio of mRNA in OptiMEM. Solution B: MessengerMAX in OptiMEM. After mixing solutions A and B, the mixture is incubated at room temperature for 20 minutes, and then the incubated solution is added dropwise to each well of cells. The cells are then allowed to remain at 37° C. for 3 days. […] For example, mRNA with 5′ end region motifs, 1007a and 1107a, were transfected to hPH cells as described above, the cells were lysed, and ABE protein levels were measured by ELISA. […]

The target of a further experiment is T7 RNAP (Escherichia phage T7, UniProt P00573). The settings on record: first initiating NTP / guanosine; J. Mol. Biol. (2007) 370, 256-268; cited from earlier work.
Chain of T7 RNAP (P00573 whole entry): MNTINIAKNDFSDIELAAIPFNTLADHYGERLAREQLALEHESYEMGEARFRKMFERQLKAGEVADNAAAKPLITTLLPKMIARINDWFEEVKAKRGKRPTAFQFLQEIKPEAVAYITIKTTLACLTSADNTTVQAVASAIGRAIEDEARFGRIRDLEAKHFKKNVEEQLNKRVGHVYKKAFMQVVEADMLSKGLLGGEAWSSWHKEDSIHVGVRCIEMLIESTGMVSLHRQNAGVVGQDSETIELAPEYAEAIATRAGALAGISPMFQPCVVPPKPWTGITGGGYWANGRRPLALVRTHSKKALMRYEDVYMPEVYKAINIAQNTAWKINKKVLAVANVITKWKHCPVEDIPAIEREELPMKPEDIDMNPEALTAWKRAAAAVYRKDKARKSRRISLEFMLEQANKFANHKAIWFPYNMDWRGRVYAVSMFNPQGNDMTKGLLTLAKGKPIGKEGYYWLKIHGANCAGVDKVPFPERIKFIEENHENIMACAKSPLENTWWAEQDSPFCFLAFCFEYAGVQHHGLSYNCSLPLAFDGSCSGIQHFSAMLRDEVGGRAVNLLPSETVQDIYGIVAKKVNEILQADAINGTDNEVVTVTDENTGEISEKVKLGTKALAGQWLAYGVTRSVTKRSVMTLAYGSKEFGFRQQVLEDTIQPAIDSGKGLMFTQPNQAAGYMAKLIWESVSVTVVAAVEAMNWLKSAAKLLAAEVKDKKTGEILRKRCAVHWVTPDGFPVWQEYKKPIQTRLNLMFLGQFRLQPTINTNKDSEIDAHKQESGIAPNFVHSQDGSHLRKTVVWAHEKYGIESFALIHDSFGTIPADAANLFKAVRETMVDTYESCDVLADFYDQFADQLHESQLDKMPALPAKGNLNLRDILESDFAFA

T1 sequence (P00573 whole entry): as above

`COC1C(OP(=O)(O)OCC2OC(n3cnc4c(=O)[nH]c(N)nc43)C(O)C2O)C(COP(=O)(O)OP(=O)([S-])OP(=O)(O)OCC2OC(n3c[n+](C)c4c(=O)[nH]c(N)nc43)C(O)C2O)OC1n1cnc2c(N)ncnc21` (stereo not drawn) [1107a, m^7G(ppsp)Am(p)G]: the “final production yield of mRNA” value at T7 RNA polymerase [1] (ABE encoding mRNA made with the 5′ end initiator, T7 IVT, FIG. 2) is reported as “about 3.3 mg per 1 ml of IVT reaction”. Also, the mRNA full-length purity entry on T7 RNA polymerase [1] (ABE encoding mRNA made with the 5′ end initiator, capillary gel electrophoresis, FIG. 3) is “about 86%”. Further, at T7 RNA polymerase [1] (initiator-to-NTP ratio ranging from 1:1 down to 1:5, FIG. 3), the “amount of full-length mRNA produced” value is “did not reduce”. Besides, on T7 RNA polymerase [2], the capping efficiency is on record as above 90%. Further, in experiment [3], the “ABE protein levels as compared to mRNA with 5′ end region motif 1002a” value is recorded as “similar”.
In general, Kd refers to the equilibrium constant for the complex coming apart. On to `Nc1nc2c(ncn2[C@@H]2O[C@H](COP(=O)(O)OP(=O)(O)OP(=O)(O)O)[C@@H](O)[C@H]2O)c(=O)[nH]1` [GTP], for which the Kd at T7 RNAP was 2000 µM.
